Measured values as given in patent publication US20100267561A1, “HERBICIDAL PYRIDAZINONE DERIVATIVES” (priority 2007, published 2010).

Experiments:
Type in all cases: in vivo
[1] = system: giant foxtail (Setaria faberi); assay: Test A pre-/postemergence plant response
Procedure, shortened: (§1)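 Greenhouse pot test: loam–sand soil; pre- and postemergence sprays applied same day; post plants 2–10 cm, 1–2 leaves. Readout ~10 d, visual % injury vs untreated (0 = none, 100 = complete control).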

[2] = system: velvetleaf (Abutilon theophrasti); assay: Test A pre-/postemergence plant response
Procedure, shortened: as §1

[3] = system: wheat (Triticum aestivum); assay: Test A pre-/postemergence plant response
Procedure, shortened: as §1

[4] = system: Italian ryegrass (Lolium multiflorum); assay: Test C pre-/postemergence plant response; settings: Preemergence
Procedure, shortened: (§2)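 Ratings ran from 0 (no effect) to 100 (complete control) and were made visually against untreated controls 15–25 days after treatment in a controlled growth environment. Application was preemergence and, for some chemicals, postemergence at the 1- to 4-leaf stage (2–18 cm). Formulation was a non-phytotoxic solvent mixture with surfactant.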

[5] = system: annual bluegrass (Poa annua); assay: Test C pre-/postemergence plant response; settings: Preemergence
Procedure, shortened: as §2

[6] = system: blackgrass (Alopecurus myosuroides); assay: Test C pre-/postemergence plant response; settings: Preemergence
Procedure, shortened: as §2

[7] = system: canarygrass (Phalaris minor); assay: Test C pre-/postemergence plant response; settings: Preemergence
Procedure, shortened: as §2

[8] = system: green foxtail (Setaria viridis); assay: Test C pre-/postemergence plant response; settings: Preemergence
Procedure, shortened: as §2

[9] = system: pigweed (Amaranthus retroflexus); assay: Test C pre-/postemergence plant response; settings: Preemergence
Procedure, shortened: as §2

[10] = system: spring barley (Hordeum vulgare); assay: Test C pre-/postemergence plant response; settings: Preemergence
Procedure, shortened: as §2

[11] = system: spring wheat (Triticum aestivum); assay: Test C pre-/postemergence plant response; settings: Preemergence
Procedure, shortened: as §2

[12] = system: wild mustard (Sinapis arvensis); assay: Test C pre-/postemergence plant response; settings: Preemergence
Procedure, shortened: as §2

[13] = system: windgrass (Apera spica-venti); assay: Test C pre-/postemergence plant response; settings: Preemergence
Procedure, shortened: as §2

[14] = system: winter barley (Hordeum vulgare); assay: Test C pre-/postemergence plant response; settings: Preemergence
Procedure, shortened: as §2

[15] = system: winter wheat (Triticum aestivum); assay: Test C pre-/postemergence plant response; settings: Preemergence
Procedure, shortened: as §2

[16] = Postemergence, 31 g ai/ha, 0 to 100 scale, 0 no effect, 100 complete control
[17] = Postemergence, 125 g ai/ha, 0 to 100 scale, 0 no effect, 100 complete control
[18] = Preemergence, 31 g ai/ha, 0 to 100 scale, 0 is no effect, 100 is complete control
[19] = Preemergence, 125 g ai/ha, 0 to 100 scale (0 no effect, 100 complete control)
[20] = 8 g ai/ha, scale 0 to 100 (0 no effect, 100 complete control)
[21] = 16 g ai/ha, scale 0 to 100 (0 no effect, 100 complete control)
[22] = 31 g ai/ha, scale 0 to 100 (0 no effect, 100 complete control)
[23] = 62 g ai/ha, scale 0 to 100, 0 no effect, 100 complete control

**Q.** For `Cc1cc(-c2ccc(Cl)cc2)nn1-c1c(OC(=O)Oc2ccccc2)cnn(C)c1=O` [Compound 54], which “Plant response rating, Foxtail, Giant” value [1, 16] is on record?
**A.** 90

**Q.** And the “Plant response rating, Foxtail, Giant” value [1, 17]?
**A.** 100

**Q.** And the “Plant response rating, Foxtail, Giant” value [1, 18]?
**A.** 90

**Q.** And the “Plant response rating, Foxtail, Giant” value [1, 19]?
**A.** 100

**Q.** And the “Plant response rating, Velvetleaf” value [2, 16]?
**A.** 0

**Q.** And the “Plant response rating, Velvetleaf” value [2, 17]?
**A.** 0

**Q.** And the “Plant response rating, Velvetleaf” value [2, 18]?
**A.** 0

**Q.** What about the “Plant response rating, Velvetleaf” value [2, 19] of the same molecule?
**A.** 0

**Q.** What about the “Plant response rating, Wheat” value [3, 16] of the same molecule?
**A.** 30

**Q.** And the “Plant response rating, Wheat” value [3, 17]?
**A.** 60

**Q.** And the “Plant response rating, Wheat” value [3, 18]?
**A.** 0

**Q.** What about the “Plant response rating, Wheat” value [3, 19] of the same molecule?
**A.** 60

**Q.** And the “Plant response rating, Ryegrass, Italian” value [4, 20]?
**A.** 0

**Q.** And the “Plant response rating, Ryegrass, Italian” value [4, 21]?
**A.** 20

**Q.** What about the “Plant response rating, Ryegrass, Italian” value [4, 22] of the same molecule?
**A.** 100

**Q.** And the “Plant response rating, Ryegrass, Italian” value [4, 23]?
**A.** 100

**Q.** What about the “Plant response rating, Bluegrass” value [5, 20] of the same molecule?
**A.** 0

**Q.** And the “Plant response rating, Bluegrass” value [5, 21]?
**A.** 0

**Q.** And the “Plant response rating, Bluegrass” value [5, 22]?
**A.** 0

**Q.** What about the “Plant response rating, Bluegrass” value [5, 23] of the same molecule?
**A.** 25

**Q.** And the “Plant response rating, Blackgrass” value [6, 20]?
**A.** 35

**Q.** What about the “Plant response rating, Blackgrass” value [6, 21] of the same molecule?
**A.** 70

**Q.** And the “Plant response rating, Blackgrass” value [6, 22]?
**A.** 100

**Q.** And the “Plant response rating, Blackgrass” value [6, 23]?
**A.** 100

**Q.** What about the “Plant response rating, Canarygrass” value [7, 20] of the same molecule?
**A.** 0

**Q.** And the “Plant response rating, Canarygrass” value [7, 21]?
**A.** 70

**Q.** And the “Plant response rating, Canarygrass” value [7, 22]?
**A.** 80

**Q.** What about the “Plant response rating, Canarygrass” value [7, 23] of the same molecule?
**A.** 95

**Q.** What about the “Plant response rating, Foxtail, Green” value [8, 20] of the same molecule?
**A.** 40

**Q.** What about the “Plant response rating, Foxtail, Green” value [8, 21] of the same molecule?
**A.** 98

**Q.** And the “Plant response rating, Foxtail, Green” value [8, 22]?
**A.** 100

**Q.** And the “Plant response rating, Foxtail, Green” value [8, 23]?
**A.** 100

**Q.** And the “Plant response rating, Pigweed” value [9, 20]?
**A.** 0

**Q.** And the “Plant response rating, Pigweed” value [9, 21]?
**A.** 0

**Q.** And the “Plant response rating, Pigweed” value [9, 22]?
**A.** 0

**Q.** What about the “Plant response rating, Pigweed” value [9, 23] of the same molecule?
**A.** 0

**Q.** And the “Plant response rating, Barley, Spring” value [10, 20]?
**A.** 0

**Q.** What about the “Plant response rating, Barley, Spring” value [10, 21] of the same molecule?
**A.** 0

**Q.** What about the “Plant response rating, Barley, Spring” value [10, 22] of the same molecule?
**A.** 25

**Q.** And the “Plant response rating, Barley, Spring” value [10, 23]?
**A.** 70

**Q.** What about the “Plant response rating, Wheat, Spring” value [11, 20] of the same molecule?
**A.** 0

**Q.** And the “Plant response rating, Wheat, Spring” value [11, 21]?
**A.** 25

**Q.** And the “Plant response rating, Wheat, Spring” value [11, 22]?
**A.** 65

**Q.** What about the “Plant response rating, Wheat, Spring” value [11, 23] of the same molecule?
**A.** 98

**Q.** What about the “Plant response rating, Mustard, Wild” value [12, 21] of the same molecule?
**A.** 0

**Q.** And the “Plant response rating, Mustard, Wild” value [12, 22]?
**A.** 0

**Q.** And the “Plant response rating, Mustard, Wild” value [12, 23]?
**A.** 0

**Q.** What about the “Plant response rating, Windgrass” value [13, 20] of the same molecule?
**A.** 0

**Q.** And the “Plant response rating, Windgrass” value [13, 21]?
**A.** 0

**Q.** What about the “Plant response rating, Windgrass” value [13, 22] of the same molecule?
**A.** 60

**Q.** And the “Plant response rating, Windgrass” value [13, 23]?
**A.** 75

**Q.** And the “Plant response rating, Barley, Winter” value [14, 20]?
**A.** 0

**Q.** What about the “Plant response rating, Barley, Winter” value [14, 21] of the same molecule?
**A.** 10

**Q.** What about the “Plant response rating, Barley, Winter” value [14, 22] of the same molecule?
**A.** 15

**Q.** And the “Plant response rating, Barley, Winter” value [14, 23]?
**A.** 75

**Q.** What about the “Plant response rating, Wheat, Winter” value [15, 20] of the same molecule?
**A.** 0

**Q.** What about the “Plant response rating, Wheat, Winter” value [15, 21] of the same molecule?
**A.** 0

**Q.** What about the “Plant response rating, Wheat, Winter” value [15, 22] of the same molecule?
**A.** 35

**Q.** And the “Plant response rating, Wheat, Winter” value [15, 23]?
**A.** 50
